{"source": "patent US20170246166A1", "about": "“1,2-BENZOTHIAZOLE COMPOUNDS FOR THE TREATMENT OF KIDNEY DISORDERS” (priority 2014, published 2017)", "format_in_all_cases": "biochemical", "key": {"human PKCε": {"target": "T1, human PKCε (Homo sapiens, UniProt Q02156)", "T1 sequence (Q02156 1-737)": "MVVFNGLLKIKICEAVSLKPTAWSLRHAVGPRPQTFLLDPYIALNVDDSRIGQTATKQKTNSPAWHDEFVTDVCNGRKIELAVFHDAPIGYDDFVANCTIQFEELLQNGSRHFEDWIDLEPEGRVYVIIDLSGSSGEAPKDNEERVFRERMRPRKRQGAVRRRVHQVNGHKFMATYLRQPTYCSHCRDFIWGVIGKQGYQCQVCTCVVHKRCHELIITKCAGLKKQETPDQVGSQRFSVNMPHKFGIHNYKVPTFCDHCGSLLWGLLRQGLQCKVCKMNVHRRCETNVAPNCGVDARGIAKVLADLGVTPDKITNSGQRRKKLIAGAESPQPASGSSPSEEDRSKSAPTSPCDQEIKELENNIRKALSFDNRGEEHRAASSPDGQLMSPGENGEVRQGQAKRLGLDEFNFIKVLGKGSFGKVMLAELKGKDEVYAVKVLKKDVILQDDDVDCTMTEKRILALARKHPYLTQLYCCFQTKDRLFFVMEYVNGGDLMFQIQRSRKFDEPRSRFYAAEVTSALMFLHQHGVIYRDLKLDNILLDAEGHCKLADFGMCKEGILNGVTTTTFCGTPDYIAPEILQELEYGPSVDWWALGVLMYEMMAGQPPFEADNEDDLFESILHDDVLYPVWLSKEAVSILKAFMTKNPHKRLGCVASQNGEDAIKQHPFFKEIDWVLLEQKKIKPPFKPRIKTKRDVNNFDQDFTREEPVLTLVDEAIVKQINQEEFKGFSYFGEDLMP", "experiment": "PKC isoforms based HTRF KinEASE-STK assay, PKCε", "conditions": "25 μM ATP in substrate mix, 30 min", "description": "(§1) The purpose of this assay is to evaluate the inhibitory activity of compounds on various PKC isoforms. It has been reported that perturbations in vascular cell homeostasis caused by different PKC isoforms (PKC-α, β1/2, and PKC-δ) are linked to the development of pathologies affecting large vessel (atherosclerosis, cardiomyopathy) and small vessel (retinopathy, nephropathy, and neuropathy) complications. Geraldes, P. and King, G. L., “Activation of Protein Kinase C Isoforms and Its Impact on Diabetic Complications”, Cir.\n(§2) Effects of a test compound on the kinase activity of PKCα, β2, δ, ε, ι, and ζ, are determined using a HTRF KINEASE™-STK assay kit (Cisbio) in accordance with the protocol provided by the vendor. It is a general method for measuring Serine/Threonine kinase activities using kinase substrates and a universal detection system. In the current protocol, biotinilated STK1provided in the assay kit is used as the substrate that can be phosphorylated by any PKC isoform. The HTRF KINEASE™-STK assay kit format involves the two steps (Enzymatic step and Detection step) described below. First, the kinase phosphorylates the substrate in the presence of ATP. Second, the detection reagents provided in the assay kit recognize the phosphorylated substrate."}, "human PKCα": {"target": "human PKCα (Homo sapiens, UniProt P17252)", "experiment": "PKC isoforms based HTRF KinEASE-STK assay, PKCα", "conditions": "50 μM ATP in substrate mix, 30 min", "description": "as §1, §2"}, "human PKCι": {"target": "T2, human PKCι (Homo sapiens, UniProt P41743)", "T2 sequence (P41743 1-596)": "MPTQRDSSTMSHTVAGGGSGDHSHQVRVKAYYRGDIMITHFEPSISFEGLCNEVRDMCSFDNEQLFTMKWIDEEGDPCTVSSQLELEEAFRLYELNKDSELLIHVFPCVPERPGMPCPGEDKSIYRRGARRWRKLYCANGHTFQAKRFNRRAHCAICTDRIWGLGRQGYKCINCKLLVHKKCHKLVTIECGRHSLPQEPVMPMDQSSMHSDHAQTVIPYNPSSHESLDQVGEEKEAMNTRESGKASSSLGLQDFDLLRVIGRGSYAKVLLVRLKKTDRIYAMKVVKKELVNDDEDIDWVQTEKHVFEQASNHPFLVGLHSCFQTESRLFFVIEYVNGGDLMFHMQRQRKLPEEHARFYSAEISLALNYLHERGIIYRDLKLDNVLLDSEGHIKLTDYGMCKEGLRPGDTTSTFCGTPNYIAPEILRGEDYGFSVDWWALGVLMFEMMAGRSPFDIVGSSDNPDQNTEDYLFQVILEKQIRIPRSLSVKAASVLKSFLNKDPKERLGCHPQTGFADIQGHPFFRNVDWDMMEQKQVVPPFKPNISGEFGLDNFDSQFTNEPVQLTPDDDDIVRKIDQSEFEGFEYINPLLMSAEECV", "experiment": "PKC isoforms based HTRF KinEASE-STK assay, PKCι", "conditions": "87.5 μM ATP in substrate mix, 70 min", "description": "as §1, §2"}, "human PKCζ": {"target": "T3, human PKCζ (Homo sapiens, UniProt Q05513)", "T3 sequence (Q05513 1-592)": "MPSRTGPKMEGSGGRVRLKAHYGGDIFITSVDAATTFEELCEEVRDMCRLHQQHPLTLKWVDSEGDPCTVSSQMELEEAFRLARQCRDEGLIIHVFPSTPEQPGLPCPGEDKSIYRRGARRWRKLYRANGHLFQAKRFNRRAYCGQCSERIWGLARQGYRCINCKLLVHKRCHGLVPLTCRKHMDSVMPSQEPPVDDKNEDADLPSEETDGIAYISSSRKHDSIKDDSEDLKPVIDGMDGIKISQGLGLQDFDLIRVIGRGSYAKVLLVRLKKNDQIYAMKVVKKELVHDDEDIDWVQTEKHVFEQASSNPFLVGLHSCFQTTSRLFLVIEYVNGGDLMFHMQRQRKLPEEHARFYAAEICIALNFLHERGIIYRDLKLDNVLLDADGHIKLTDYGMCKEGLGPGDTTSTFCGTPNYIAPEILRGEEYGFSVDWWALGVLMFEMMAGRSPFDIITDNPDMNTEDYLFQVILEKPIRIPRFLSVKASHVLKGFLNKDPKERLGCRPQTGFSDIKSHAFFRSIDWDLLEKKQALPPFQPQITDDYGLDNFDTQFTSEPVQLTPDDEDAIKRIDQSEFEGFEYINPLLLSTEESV", "experiment": "PKC isoforms based HTRF KinEASE-STK assay, PKCζ", "conditions": "10 μM ATP in substrate mix, 70 min", "description": "as §1, §2"}, "human PKCδ": {"target": "human PKCδ (Homo sapiens, UniProt Q05655)", "sequence (Q05655 whole entry, canonical isoform)": "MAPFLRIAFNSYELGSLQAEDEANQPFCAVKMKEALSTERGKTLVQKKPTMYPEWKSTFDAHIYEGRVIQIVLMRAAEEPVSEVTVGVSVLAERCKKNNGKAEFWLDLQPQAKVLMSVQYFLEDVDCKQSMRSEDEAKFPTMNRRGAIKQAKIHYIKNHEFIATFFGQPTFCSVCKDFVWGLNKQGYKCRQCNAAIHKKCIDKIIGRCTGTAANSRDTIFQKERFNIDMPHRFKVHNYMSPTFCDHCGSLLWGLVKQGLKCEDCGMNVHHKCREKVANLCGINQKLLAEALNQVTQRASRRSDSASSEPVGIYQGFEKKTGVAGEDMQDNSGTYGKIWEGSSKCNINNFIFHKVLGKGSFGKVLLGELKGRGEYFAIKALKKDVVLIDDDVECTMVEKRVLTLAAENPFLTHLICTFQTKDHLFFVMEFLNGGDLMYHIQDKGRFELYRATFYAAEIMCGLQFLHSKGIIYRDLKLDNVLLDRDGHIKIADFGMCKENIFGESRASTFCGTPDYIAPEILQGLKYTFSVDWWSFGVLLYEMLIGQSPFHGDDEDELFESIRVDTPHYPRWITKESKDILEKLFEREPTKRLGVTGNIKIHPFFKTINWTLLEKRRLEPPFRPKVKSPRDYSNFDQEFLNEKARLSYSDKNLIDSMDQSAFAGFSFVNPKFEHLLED", "experiment": "PKC isoforms based HTRF KinEASE-STK assay, PKCδ", "conditions": "62.5 μM ATP in substrate mix, 40 min", "description": "as §1, §2"}}, "note": "pIC50: −log10 of the molar value."}
{"compound": "C[C@@H]1CN(C(=O)c2cc(-c3c(F)cc(O)cc3F)cc3cnsc23)C[C@H](C)N1.Cl", "note": "[Example 2, 4-(7-{[(3R,5 S)-3,5-DIMETHYLPIPERAZIN-1-YL]CARBONYL}-1,2-BENZOTHIAZOL-5-YL)-3,5-DIFLUOROPHENOL HYDROCHLORIDE]", "values": [{"measurement": "pIC50", "setting": "human PKCε", "value": "~7.66"}, {"measurement": "pIC50", "setting": "human PKCα", "value": "~7.78"}, {"measurement": "pIC50", "setting": "human PKCι", "value": "< 4.70"}, {"measurement": "pIC50", "setting": "human PKCζ", "value": "~4.81"}, {"measurement": "pIC50", "setting": "human PKCδ", "value": "~7.17"}]}
